From patent US9486425B2 (NESTEC S.A., priority 2012, dated 2016)

Assays:
HT-29 clone 34 cells = assay: HT-29 clone 34 cell viability (ATP, Cell Titer-Glo); assay type: cell-based, human
Method: 10000 cells/well were seeded in 200 μl of culture medium in flat bottom white border 96 well plates (Greiner Bio One, Kremsmuenster, Austria). […] 20 μl of experimental medium containing (or not) LPS 055:B5 or rhTNF-α (100 and 10 ng/ml final, respectively) was added and the plates were incubated for 24 hours at 37° C. in a 5% CO2/air incubator.
Cell viability was determined by measuring ATP using Cell Titer-Glo kit (Promega). Briefly, remaining adherent HT-29 clone 34 cells were incubated for 10 min at room temperature under horizontal shaking (250 rpm) with 120 μl of Cell Titer-Glo reagent (pre-diluted twice in 1×PBS) and the luminescence was measured using Polarstar microplate reader (BMG, Offenburg, Germany) for 1000 ms with a gain value set to 3500.

[1] = tested on: Glutamate cysteine ligase, catalytic subunit (Gclc); assay: mRNA expression in hepatocytes (qPCR): glutamate cysteine ligase catalytic subunit; assay type: cell-based; details: rat hepatocytes, 24 h, dose range (FIG. 5)
Method: (§1) Hepatocytes were isolated from Sprague-Dawley male rats (190-240 g) by liver perfusion. […] After overnight incubation, the medium was removed and 2.5 ml of fresh medium containing the test substances was added. The dishes were incubated for 24 h at 37° C. in a 5% CO2/air incubator. Cell lysates for the RNA extraction were obtained by adding 400 μl of RNA lysis buffer (RA-1 with 1% v/v β-mercaptoethanol) to the cells and vigorously mixed (vortex). Total RNA was extracted from the cell lysates according manufacturer's instructions (Nucleospin RNA2 kit, Macherey-Nagel, Düren, Germany) with minor changes: 20 min of DNASE treatment and 60 μl of elution volume. Total RNAs were quantified using Ribogren kit (Molecular probes) and the quality was evaluated by capillary electrophoresis using Bionalyzer (Agilent). Reverse transcription reactions were performed with the Multiscribe reverse transcriptase enzyme in the presence of random hexamers primers (Reverse Transcription Reagent from Applied Biosystems). Gene expression quantification was performed using pre-designed TaqMan probes (Applied Biosystems). Each qPCR reaction was done in technical duplicates on 50 ng of cDNA. The arithmetic mean of two housekeeping genes (GAPDH and β-Actin) was used for normalization. The mRNA gene expression calculations are based on the ΔΔCt method: […] [table]

[2] = tested on: Glutathione peroxidase 2 (Gpx2); assay: mRNA expression in hepatocytes (qPCR): glutathione peroxidase 2; assay type: cell-based; details: rat hepatocytes, 24 h, dose range (FIG. 5)
Method: as §1

AREc32 cells = assay: AREc32 cell viability (ATP quantification, Cell Titer-Glo); assay type: cell-based; details: 24 h
Method: To determine the Nrf2 activation the samples were tested on AREc32 cells (seeded in 96 well plates) using 10 independent dilutions (1/2, 1/4, 1/6, 1/10, 1/15, 1/20, 1/25, 1/30, 1/40 and 1/50) and incubated for 24 hours at 37° C. in a 5% CO2/air incubator. The luciferase activity and the cell viability (ATP measurements) were determined using the Luciferase and Cell Titer-Glo kits from Promega.
The cell viability was also measured using a cell Titer-Glo kit (ATP quantification).

hepatocytes = assay: Hepatocyte viability (LDH measurement); assay type: cell-based; details: rat hepatocytes, 24 h
Method: Hepatocytes were isolated from Sprague-Dawley male rats (190-240 g) by liver perfusion. Cells were seeded at 2500000 cells/dish (6 cm) in 2.5 ml of Williams'E medium supplemented with 2 mM L-glutamine, 10 mM Hepes (Sigma), 1% ITS+, 1% Penicillin/Streptomycin (Sigma) and 25 nM Dexamethasone (Sigma). After overnight incubation, the medium was removed and 2.5 ml of fresh medium containing the test substances was added. The dishes were incubated for 24 h at 37° C. in a 5% CO2/air incubator.
At the end of the incubation, the cell supernatants were harvested for LDH (lactate dehydrogenase) measurement, which is an indicator of cell viability. Cells were washed once with 2.5 ml of cold PBS 1× then detached from the Petri dishes by scraping. Cells were then transferred to 1.5 ml Eppendorf tubes which were centrifuged for 1 min at 4° C. at 7000 g.

Heme oxygenase 1 (HO-1) = assay: mRNA expression in hepatocytes (qPCR): heme oxygenase 1; assay type: cell-based; details: rat hepatocytes, 24 h, dose range (FIG. 5)
Method: as §1

[3] = tested on: UDP-glucuronosyltransferase (UGT); assay: mRNA expression in hepatocytes (qPCR): UDP-glucuronosyltransferase; assay type: cell-based; details: rat hepatocytes, 24 h, dose range (FIG. 5)
Method: as §1

[4] = tested on: Glutathione reductase (Gsr); assay: mRNA expression in hepatocytes (qPCR): glutathione reductase; assay type: cell-based, rat; details: liver cells (hepatocytes)
Method: as §1

[5] = tested on: NAD(P)H dehydrogenase quinone (Nqo1); assay: mRNA expression in hepatocytes (qPCR): NAD(P)H dehydrogenase quinone; assay type: cell-based; details: rat hepatocytes, 24 h, dose range (FIG. 5)
Method: as §1

NF-κB = NF-κB activity in HT-29 clone 34 cells (SEAP reporter and IL-8); assay type: cell-based, human
Method: Two in-vitro systems were used: human colonic cells (HT-29 clone 34) and human monocytes/macrophages (THP-1 blue cells). The human colonic adenocarcinoma HT-29 clone 34 cell line (passage 42-50) are adherent cells stably transfected with a NF-κB/SEAP reporter plasmid. They were cultured in DMEM high glucose (4.5 g/L) (Invitrogen) containing 1% of stable L-glutamine and supplemented with 10% of heat inactivated (one hour at 56° C.) Foetal Calf Serum (FCS) (Bioconcept, Allschwil, Switzerland), 1% of Penicillin/Streptomycin (Sigma) and 500 μg/ml of Geneticin (PAA, Pasching, Austria) at 37° C. in a 5% CO2/air incubator. Culture medium was renewed every two days until the cell monolayer reached ˜90% confluence. Cells were sub-cultured using 1× Trypsin/EDTA (Sigma). 10000 cells/well were seeded in 200 μl of culture medium in flat bottom white border 96 well plates (Greiner Bio One, Kremsmuenster, Austria). […] Cell culture supernatants were then collected for measurement of NF-κB activity (determination of secreted alkaline phosphatase and IL-8 production) using Phosphalight (Applied Biosystems) and IL-8 singleplex (Meso Scale, Gaithersburg, Md.) kits, respectively.

Nrf2 = Nrf2 reporter assay (ARE-luciferase, AREc32 cells); assay type: cell-based; details: 24 h, dose range 0 to 200 μM (FIG. 3)
Method: Activation of Nrf2 was measured using an Nrf2 reporter assay. This assay is based on the AREc32 cell line, from CRX biosciences (Dundee, Scotland), a stably transfected MCF7 (breast adenocarcinoma) cell line that contains a luciferase gene construct under the control of the ARE. […] Luciferase activity is determined using a luciferase kit form Promega (Madison, Wis.). The luciferase activity is proportional to the activation of Nrf2.
For each run the luciferase activities, measured in Relative Light Units (RLU), of all the wells were normalized with the mean of the luciferase activity of the cells only of all the plates. Among all the samples tested the normalization procedure was found not to affect the data and this observation permits the comparison of samples measured in different runs.
For each sample the Nrf2 activation was calculated as follows: […]
The luciferase content per sample allows a semi quantification of the Nrf2 activation by reflecting the amount of the Nrf2 activating molecule. […]

[6] = tested on: Glutathione-S-transferase, pi 1 (Gstp1); assay: mRNA expression in hepatocytes (qPCR): glutathione-S-transferase; assay type: cell-based; details: rat hepatocytes, 24 h, dose range (FIG. 5)
Method: as §1

THP-1 blue cells = assay: THP-1 blue cell viability (Cell Titer-Glo); assay type: cell-based, human
Method: 200000 cells/well were seeded in 100 μl of culture medium in 96 well flat bottom transparent plates. […] 20 μl of culture media containing (or not) LPS 055:B5 (Sigma) (100 ng/ml final) was added and the plates were incubated for 16 hours at 37° C. in a 5% CO2/air incubator.
Cell culture supernatants were carefully transferred to 96 well-plates for NF-κB activity measurement which is proportional to the level of secreted alkaline phosphatase. Briefly, 100 μl of supernatants were mixed with 150 μl of QuantiBlue (Invivogen) in a 96 well-plates incubated for 3 h at 37° C. before OD measurements at 620 nm with Sunrise microplate reader (Tecan, Mannedorf, Switzerland). Cell viability was determined using Cell Titer-Glo kit as described above.

[7] = tested on: Glutathione peroxidase 1 (Gpx1); assay: mRNA expression in hepatocytes (qPCR): glutathione peroxidase 1; assay type: cell-based; details: rat hepatocytes, 24 h, dose range (FIG. 5)
Method: as §1

CC(=O)/C=C/C(=O)O [4-oxo-2-pentenoic acid]
doses showing a decrease in cell viability (HT-29 clone 34 cells): > 50 µM
mRNA expression of glutamate cysteine ligase catalytic subunit [1]: increased
mRNA expression of glutathione peroxidase 2 [2]: not affected
doses at which viability of AREc32 cells was not affected (AREc32 cells): lower than 70 μM
cell viability (LDH measurements) (hepatocytes): not affected
mRNA expression of heme oxygenase 1 (Heme oxygenase 1 (HO-1)): increased
mRNA expression of UDP-glucuronosyltransferase (UGT) [3]: increased
gene expression of glutathione reductase [4]: activated gene expression
mRNA expression of NAD(P)H dehydrogenase quinone [5]: increased
dose giving the best inhibition of NF-κB activity (SEAP and IL-8) (NF-κB; HT-29 clone 34 cells stimulated with LPS): 50 µM
inhibition of NF-κB activity (SEAP and IL-8 secretion) (NF-κB; HT-29 clone 34 cells stimulated with LPS (100 ng/ml), 4 h pre-incubation, 24 h): inhibits NF-κB activity in a dose dependent manner
NF-κB activity (SEAP or IL-8) in the absence of LPS (NF-κB; HT-29 clone 34 cells, no LPS, doses tested 3 to 400 μM): no NF-κB activity was observed
Nrf2 activation (Nrf2): strongly activate Nrf2 in a dose dependent manner
mRNA expression of glutathione-S-transferase [6]: increased
doses toxic to cells (THP-1 blue cells): higher than 75 μM
mRNA expression of glutathione peroxidase 1 [7]: not affected
